# Reference: US20170367956A1, “Oral Care Composition” (Colgate-Palmolive Company, priority 2014, published 2017)
# Assays:
# [1] = test system: HSP 27; assay: HSP 27 assay in scratched (damaged) human gingival tissue, supernatant level; assay type: cell-based; conditions: for Concentration of HSP 27: scratched gingival tissue
# Method: A scratching protocol was used to damage and stress human gingival tissue (MatTek Corporation). Taurine, at two doses, (50 ppm and 200 ppm), was applied to the culture medium containing the tissue. The treated tissue was incubated at 37° C. to promote tissue healing. Cell supernatant was collected at various time points and the level of HSP 27 was measured.
# [2] = test system: HSP-27; assay: Intracellular HSP27 expression in scratched keratinocytes (ELISA); assay type: cell-based, human; conditions: for HSP-27, intracellular: 50 ppm taurine
# Method: Human keratinocytes are cultured in DMEM medium supplemented with 10% FBS and 1% of antibiotic at 37° C. under a 5% CO2 atmosphere in petri dishes. Once the cells are 80-90% confluent, a scratch is made horizontally and a scratch is made vertically across the layer of cells. […] […] The cell suspension is then homogenized with metal beads for 5 minutes and then analyzed for HSP27 using ELISA. In both untreated and arginine treated cells, scratching induces a strong increase in intracellular HSP-27 expression at one hour which declines at 4 hours. […] Without being bound by theory, Applicants believe that it is this initial burst of HSP-27 expression at the time of physical injury that contributes to improved wound healing.
# [3] = test system: Human keratinocytes; assay: Migration of human keratinocytes after scratch (gap closure); assay type: cell-based; conditions: for % Gap Closure: 100 ppm taurine in DMEM
# Method: Human keratinocytes are cultured in DMEM medium supplemented with 10% FBS and 1% of antibiotic at 37° C. under a 5% CO2 atmosphere in petri dishes. Once the cells are 80-90% confluent, a scratch is made horizontally and a scratch is made vertically across the layer of cells. 1 ml of a test solution is added to the culture, and the cells are further incubated and monitored by photomicroscopy to evaluate the closure of the gap created by the scratches. The test solutions compared are 100 ppm Taurine in DMEM medium and untreated DMEM medium. The results are shown in Table 4 below, expressed as the average width of the gap as a percentage of the initial width of the gap (at 0 hours).
Compound,Difference in HSP 27 production between the two concentrations of taurine (in words) ([1]; 50 ppm versus 200 ppm),"Effect on production of HSP 27 versus untreated, scratched tissue (in words) ([1]; both doses tested (50 ppm and 200 ppm), 1 hour and 4 hours)","Concentration of HSP 27 ([1]; taurine 50 ppm, incubation time 0 hr) [ng/mL]","Concentration of HSP 27 ([1]; taurine 50 ppm, incubation time 1 hr) [ng/mL]","Concentration of HSP 27 ([1]; taurine 50 ppm, incubation time 4 hr) [ng/mL]","Concentration of HSP 27 ([1]; taurine 200 ppm, incubation time 0 hr) [ng/mL]","Concentration of HSP 27 ([1]; taurine 200 ppm, incubation time 1 hr) [ng/mL]","Concentration of HSP 27 ([1]; taurine 200 ppm, incubation time 4 hr) [ng/mL]","HSP-27, intracellular ([2]; time 0 hr) [ng/mL]","HSP-27, intracellular ([2]; time 1 hr) [ng/mL]",Speed of gap closure compared to the DMEM control (in words) ([3]; 100 ppm taurine),% Gap Closure ([3]; 24 hr after scratch) [%],% Gap Closure ([3]; 48 hr after scratch) [%],% Gap Closure ([3]; 144 hr after scratch) [%],Intracellular HSP-27 expression versus untreated cells (in words) [2]
"NCCS(=O)(=O)O [Taurine, 2-aminoethanesulfonic acid]",no significant difference,significantly accelerated the production of HSP 27,10.05,180.33,269.64,6.19,196.95,275.17,23.59,69.65,significantly faster,23,71,100,
N=C(N)NCCC[C@H](N)C(=O)O [arginine],,,,,,,,,,,,,,,significantly higher expression of HSP-27
